Results as given in US11905231B1, “Solid forms, salts and polymorphs of anti-fibrotic compounds” (Certa Therapeutics Pty Ltd, priority 2023, dated 2024).
Counter-ions that a name gives are not always drawn. Like-named read-outs stand apart in the source and are kept apart here.

Key:
physchem = settings: 37 °C, thermodynamic from solid; for solubility at 1 h: 1 h Solubility; for solubility at 24 h: 24 h Solubility
Description: (§1) The term “FaSSIF media” refers to Fasted State Simulated Intestinal Fluid media prepared using FaSSIF powder and buffer concentrate obtained from the commercial source Biorelevant (London, UK, biorelevant.com). The FaSSIF powder contains sodium taurocholate, lecithin, sodium chloride, monobasic sodium phosphate and sodium hydroxide. The FaSSIF media is prepared as described at https://biorelevant.com/learning_center/what-is-fassif/. Briefly the pH6.5 buffer containing 0.42 g of NaOH, 3.95 g of NaH2PO4·H2O and 6.19 g of NaCl was dissolved in 0.9 L of purified water and the pH of the solution was adjusted to 6.5 using sodium hydroxide 1N or hydrochloric acid 1N and made up to volume (1 L) with purified water at room temperature. Dissolve 2.24 g of the FaSSIF powder in 0.5 L of the pH6.5 buffer, stirring until the powder is completely dissolved, and then make up to volume (1 L) with buffer at room temperature.
(§2) The samples were stirred using a magnetic stirrer at 37° C. […] The samples were filtered via centrifugation (12,000 rpm, 5 min). The supernatant was diluted (2×) with HPLC grade solvent and analyzed by HPLC.
HPLC gradient was as follows:
(§3) The pH 1.2, pH 4.5, and pH 6.8 media were prepared as standard aqueous buffered solutions following USP <39>.
(§4) As used herein, the term “FaSSIF media” means Fasted Stated Simulated Intestinal Fluid media prepared according to the method known in the art.

[1] = 37° C.
Description: as §1, §2
HPLC gradient was as follows:
as §3, §4

in vivo = settings: rat, in vivo, po, 20 mg/kg
Description: Bioavailability is determined by the equation AUC=F·D/CLT, wherein AUC is the area under the plot of plasma concentration, F is the absolute bioavailability, D is the dose, and CLT is the total clearance.
The rats received a single oral dose of 20 mg/kg body weight (b.w.). The doses were prepared as a 2.0 mg/mL suspension in a vehicle of 20 mM Na2HPO4 buffer containing 5% (v/v) DMSO, 0.4% (v/v) 1M NaOH and 0.4% (v/v) Tween 80 and a dose volume of 10 mL/kg b.w.
Pharmacokinetic analysis was performed on the average plasma concentration for each time point.

[2] = Thermogravimetric Analysis (TGA) weight loss; type: physicochemical; settings: for Weight loss (TGA): when heated from about 25° C. to about 120° C. (text)
[3] = Stability of the ethanolamine salt under accelerated and long-term storage conditions; type: physicochemical; settings: for API (Purity_) / Total Impurity: HPLC
Description: The samples were assayed by HPLC at the start, after 1 week, and after 2 weeks at the indicated accelerated storage conditions, or after 36 days at room temperature storage. For HPLC analysis, the samples were diluted with 10 mL of TFA/DMSO/ACN (0.1/10/90, v/v/v) to ˜1 mg/mL and analyzed by HPLC.
The samples were also analyzed by XRPD at initial, 1 week, 2 weeks and 36 day time points.

[4] = Dynamic Vapor Sorption (DVS) hygroscopicity; settings: at 80% RH, 25° C., measured during 0% RH to 95% RH increase
Description: The change in water content is recited as a % change in mass of the starting sample and all such water sorption (DVS) values recited herein will be understood to explicitly include numerical values within a +/−0.2% variance.
The humidity is held constant at 30% RH until the mass change of the sample reaches equilibrium, as determined by the rate of change of weight being 0.01%/minute or less. The humidity is then changed to the next step value and the consequent mass change measured, and so on.
The hygroscopicity values recited herein refer to total water gain since the start of the experiment only and so may not necessarily be equivalent to the actual total water content of the sample.

[5] = pH 1.2 aqueous buffer, pH 1.2, simulated gastric fluid, pH 1.2 medium
[6] = pH 4.5 aqueous buffer, pH 4.5 medium
[7] = 40° C., 75% RH, open vial, 1 week
[8] = 40° C., 75% RH, open vial, 2 weeks

SMILES: C#CCOc1ccc(/C=C/C(=O)Nc2ccccc2C(=O)O)cc1OC [Ethanolamine salt]
- solubility at 1 h (physchem; [5]): 8 µg/mL
- solubility at 24 h (physchem; [5]): 3 µg/mL
- solubility at 1 h (physchem; [6]): 28 µg/mL
- solubility at 24 h (physchem; [6]): 5 µg/mL
- solubility at 24 h (physchem; pH 6.8 aqueous buffer, pH 6.8 medium): 88 µg/mL
- 1 h Solubility ([1]; FaSSIF (pH 7.5)): >7990 µg/mL
- 24 h Solubility ([1]; FaSSIF (pH 7.5)): >7990 µg/mL
- 1 h Solubility ([1]; FaSSIF): 238 µg/mL
- 24 h Solubility ([1]; FaSSIF): 263 µg/mL
- 1 h Solubility ([1]; FeSSIF (pH 7.8)): >8020 µg/mL
- 24 h Solubility ([1]; FeSSIF (pH 7.8)): >8020 µg/mL
- 1 h Solubility ([1]; FeSSIF): 12 µg/mL
- 24 h Solubility ([1]; FeSSIF): 25 µg/mL
- 1 h Solubility ([1]; pH 6.8 medium): 116 µg/mL
- AUCExtr (in vivo; Sprague-Dawley): 1.92%
- AUCInf (in vivo; Sprague-Dawley): 405.006 µg·h/mL
- AUClast (in vivo; Sprague-Dawley): 396.535 µg·h/mL
- tmax (in vivo; Sprague-Dawley): 1.00 h
- Mean concentration (plasma) (in vivo; Sprague-Dawley, 0.5 h): 37133 ng/mL
- Mean concentration (plasma) (in vivo; Sprague-Dawley, 1 h): 52733 ng/mL
- Mean concentration (plasma) (in vivo; Sprague-Dawley, 2 h): 40300 ng/mL
- Mean concentration (plasma) (in vivo; Sprague-Dawley, 4 h): 25900 ng/mL
- Mean concentration (plasma) (in vivo; Sprague-Dawley, 8 h): 18767 ng/mL
- Mean concentration (plasma) (in vivo; Sprague-Dawley, 24 h): 1262 ng/mL
- half-life (in vivo; Sprague-Dawley, t1/2): 4.32 h
- Plasma concentration at 24 h post dose compared to the other tested compounds (in vivo): highest plasma concentrations
- Weight loss by TGA ([2]; from 0° C. to 120° C.): 0.10% from 0 °C to
- Weight loss by TGA ([2]; from r.t. to 120° C.): 0.10% from r.t. to
- Total weight loss by TGA ([2]; from r.t. to 350° C. (or to decomposition if lower)): 0.10% total weight
- Weight loss (TGA) ([2]; listed as ethanolamine): 0.10%
- Weight loss (TGA) ([2]; listed as ethanolamine salt): about 0.1%
- Appearance [3, 7]: White
- API (Purity_) [3, 7]: 99.73%
- Total Impurity [3, 7]: 0.27%
- Appearance [3, 8]: White
- API (Purity_) [3, 8]: 99.72%
- Total Impurity [3, 8]: 0.28%
- Appearance ([3]; 60° C., open vial, 1 week): White
- API (Purity_) ([3]; 60° C., open vial, 1 week): 99.73%
- Total Impurity ([3]; 60° C., open vial, 1 week): 0.27%
- Appearance ([3]; 60° C., open vial, 2 weeks): White
- API (Purity_) ([3]; 60° C., open vial, 2 weeks): 99.71%
- Total Impurity ([3]; 60° C., open vial, 2 weeks): 0.29%
- Appearance ([3]; Initial): White
- API (Purity_) ([3]; Initial): 99.75%
- Total Impurity ([3]; Initial): 0.26%
- Changes in impurity content or crystallinity ([3]; accelerated storage (1-2 weeks) or long-term storage (room temperature, 36 days), HPLC and XRPD): no significant changes
- Hygroscopicity by DVS [4]: 0.49%
- Hygroscopicity by DVS ([4]; listed as ethanolamine): 0.49%
- Hygroscopicity by DVS ([4]; listed as ethanolamine salt): about 0.49%
